Measured values taken from patent publication US4388234A, “Peptide isolation” (Hoffmann-La Roche Inc., priority 1981, dated 1983).

Test system: Candida albicans ATCC 10231
Test: protective activity against opportunistic infections in immunosuppressed (5-FU pretreated) mice
Type: in vivo
Details: for Survivors at Day 15 / Survivors at Day 8: daily for eight days with 5-FU 25 mg/kg/day i.p., female ddY mice; for Survivors at Day 15: survivors/total 15 days after infection; for Survivors at Day 8: survivors/total eight days after infection
Procedure: The mice were then infected with Candida albicans ATCC 10231 (1×10^5cells or more) at 24 hours after the last treatment. One control group was administered 5-FU and saline solution and a second control group received neither 5-FU nor a thymic polypeptide prior to infection with Candida albicans.

Thymosin β4: peptide containing 44 amino acid residues, isolated from calf thymus; contained in APF
protective effects against infection (compared with the polypeptides of Thymosin Fraction 5, thymosin α1 and thymosin β8, 5-FU immunosuppressed mice): of comparable similar magnitude | Survivors at Day 15 (dose 0.4 μg/kg/day): 6/10 | Survivors at Day 8 (dose 0.4 μg/kg/day): 7/10 | Survivors at Day 15 (dose 4 μg/kg/day): 5/10 | Survivors at Day 8 (dose 4 μg/kg/day): 5/10 | Survivors at Day 15 (dose 40 μg/kg/day): 1/10 | Survivors at Day 8 (dose 40 μg/kg/day): 1/10
